# In patent publication US12454521B2, “Targeted protein degradation” (C4 Therapeutics, Inc., priority 2018, dated 2025):
# Where a name gives a salt, the structure may show the parent alone.
# Target: CRBN-DDB1 (Homo sapiens, UniProt Q96SW2)
# Experiment: CRBN-DDB1 fluorescence polarization (FP) binding assay
# Conditions: displacement of Thalidomide-Alexa Fluor or Pomalidomide-fluorescein probe; 400 nM CRBN-DDB1, 5 nM probe, 0.05% pluronic acid, 60 min room temperature; read-out: FP binding to CRBN_DDB1.3 0.05% PA
# Experimental: The measurement of the ability of representative Degrons to bind to CRBN-DDB1 was carried out using an established sensitive and quantitative in vitro fluorescence polarization (FP) based binding assay. (See, I. J. Enyedy et al, J. Med. Chem., 44: […] [2001]). Degrons were dispensed from serially diluted DMSO stock into black 384-well compatible fluorescence polarization plates using an Echo acoustic dispenser. Binding to CRBN-DDB1 was measured by displacement of either a (-)-Thalidomide- Alexa Fluor® or Pomalidomide-fluorescein conjugated probe dye. A 20 μL mixture containing 400 nM CRBN-DDB1 and 5 nM probe dye in 50 mM Hepes, pH 7.4, 200mM NaCl, 1% DMSO and 0.05% pluronic acid-127 acid was added to wells containing Degron and incubated at room temperature for 60 min. Matching control wells excluding CRBN-DDB1 were used to correct for background fluorescence. Plates were read on an Envision plate reader with appropriate FP filter sets. The corrected S (perpendicular) and P (parallel) values were used to calculate fluorescence polarization (FP) with the following equation: FP =1000*(S-G*P)/(S+G*P). The fractional amount of bound probe (FB) to CRBN-DDB1 as a function of Degron concentration was fitted according to Wang; FEBS Letters 360, (1995), 111-114 to obtain fits for parameter offsets and binding constant (KA) of Degron.
# Chain of CRBN-DDB1 (Q96SW2 whole entry): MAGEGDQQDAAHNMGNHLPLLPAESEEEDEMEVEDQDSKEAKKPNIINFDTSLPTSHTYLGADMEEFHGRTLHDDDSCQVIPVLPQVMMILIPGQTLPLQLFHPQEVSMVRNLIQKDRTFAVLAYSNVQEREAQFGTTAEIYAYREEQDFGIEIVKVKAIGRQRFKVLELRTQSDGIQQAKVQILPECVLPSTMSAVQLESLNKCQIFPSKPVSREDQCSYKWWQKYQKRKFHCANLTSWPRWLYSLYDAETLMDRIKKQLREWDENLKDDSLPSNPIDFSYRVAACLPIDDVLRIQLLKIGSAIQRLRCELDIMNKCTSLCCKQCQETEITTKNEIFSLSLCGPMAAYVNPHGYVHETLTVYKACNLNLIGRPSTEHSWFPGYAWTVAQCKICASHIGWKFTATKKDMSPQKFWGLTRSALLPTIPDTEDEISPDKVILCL
# Chain of CRBN-DDB1 (Q16531 whole entry partner): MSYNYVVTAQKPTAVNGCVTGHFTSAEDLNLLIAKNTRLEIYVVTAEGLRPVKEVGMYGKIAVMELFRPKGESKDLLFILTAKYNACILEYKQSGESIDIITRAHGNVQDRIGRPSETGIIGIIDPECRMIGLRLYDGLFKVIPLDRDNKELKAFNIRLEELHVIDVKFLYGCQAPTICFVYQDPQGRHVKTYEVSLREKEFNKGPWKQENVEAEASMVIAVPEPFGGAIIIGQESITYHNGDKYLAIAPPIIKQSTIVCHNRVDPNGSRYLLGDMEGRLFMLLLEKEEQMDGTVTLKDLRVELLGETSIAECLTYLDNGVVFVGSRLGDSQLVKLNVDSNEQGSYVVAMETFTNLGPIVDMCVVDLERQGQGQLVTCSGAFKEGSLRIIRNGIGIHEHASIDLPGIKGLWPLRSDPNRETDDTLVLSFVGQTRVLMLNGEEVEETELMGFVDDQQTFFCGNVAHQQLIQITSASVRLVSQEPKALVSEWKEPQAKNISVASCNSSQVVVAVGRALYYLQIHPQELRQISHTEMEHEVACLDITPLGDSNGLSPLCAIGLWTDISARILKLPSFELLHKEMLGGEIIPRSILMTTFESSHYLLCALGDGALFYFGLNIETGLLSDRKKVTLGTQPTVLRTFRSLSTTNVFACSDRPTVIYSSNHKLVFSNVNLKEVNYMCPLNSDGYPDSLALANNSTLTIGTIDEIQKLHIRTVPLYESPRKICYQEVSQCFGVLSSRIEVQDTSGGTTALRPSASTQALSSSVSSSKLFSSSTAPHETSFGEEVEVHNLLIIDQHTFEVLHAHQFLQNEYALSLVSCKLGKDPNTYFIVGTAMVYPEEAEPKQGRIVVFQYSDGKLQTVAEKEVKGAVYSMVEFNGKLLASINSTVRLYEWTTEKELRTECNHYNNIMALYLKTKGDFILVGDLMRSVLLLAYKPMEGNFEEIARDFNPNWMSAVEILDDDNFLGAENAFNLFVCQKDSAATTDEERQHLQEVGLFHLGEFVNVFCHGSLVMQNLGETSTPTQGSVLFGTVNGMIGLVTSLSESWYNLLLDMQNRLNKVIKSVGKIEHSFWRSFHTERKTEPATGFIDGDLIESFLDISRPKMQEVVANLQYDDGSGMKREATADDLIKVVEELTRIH
row,Compound,Kd [µM]
1,"O=C1CCN(c2ccc(N3CCNCC3)nc2)C(=O)N1 [Compound 1, 1-(6-(Piperazin-1-yl)pyridin-3-yl)dihydropyrimidine-2,4(1H,3H)-dione Hydrochloride]",< 30
2,"Cn1nc(N2CCC(=O)NC2=O)c2ccc(Br)cc21 [Compound 2, 1-(6-Bromo-1-methyl-1H-indazol-3-yl)dihydropyrimidine-2,4(1H,3H)-dione]",< 50
3,"O=C1CCN(c2ccc(C3CCNCC3)c(=O)[nH]2)C(=O)N1 [Compound 5, 1-(6-Oxo-5-(piperidin-4-yl)-1,6-dihydropyridin-2-yl)dihydropyrimidine-2,4(1H,3H)-dione Hydrochloride]",< 100
4,"O=C(O)CCc1ccc(N2CCC(N3CCC(=O)NC3=O)CC2)cc1 [Compound 6, 3-[4-[4-(2,4-dioxohexahydropyrimidin-1-yl)-1-piperidyl]phenyl]propanoic acid]",< 50
5,"O=C1CCN(c2ccc(C3CCNCC3)[nH]c2=O)C(=O)N1 [Compound 7, 1-(2-Oxo-6-(piperidin-4-yl)-1,2-dihydropyridin-3-yl)dihydropyrimidine-2,4(1H,3H)-dione]",< 30
6,"O=C1CCN(c2cnn(C3CCNCC3)c2)C(=O)N1 [Compound 8, 1-[1-(4-piperidyl)pyrazol-4-yl]hexahydropyrimidine-2,4-dione]",< 100

# More lines, now with the values ahead:
row,Kd [µM],Compound
1,< 100,"O=C1CCN(c2ccc(N3CCNCC3)cc2)C(=O)N1 [Compound 10, 1-(4-Piperazin-1-yl-phenyl)-dihydro-pyrimidine-2,4-dione hydrochloride]"
2,< 100,"O=C1CCN(c2ccc(C3CCNCC3)cc2)C(=O)N1 [Compound 11, 1-[4-(4-piperidyl)phenyl]hexahydropyrimidine-2,4-dione; hydrochloride]"
3,< 100,"O=C1CCN(c2cccc(C3CCNCC3)c2)C(=O)N1 [Compound 12, 1-(3-Piperidin-4-yl-phenyl)-dihydro-pyrimidine-2,4-dione hydrochloride]"
4,< 30,"O=C1CCN(Cc2ccc(C3CCNCC3)cc2)C(=O)N1 [Compound 14, 1-(4-(Piperidin-4-yl)benzyl)dihydropyrimidine-2,4(1H,311)-dione TFA]"
